Results published in PubChem BioAssay AID248 (DTP/NCI, 2004).
“And” between values parts separate entries of the source, which are not always exact repeats. Equal entries are not always repeated. Inconclusive results and toxic doses are left out. Rule as the data show it: active = T/C of 150% or more; inactive = T/C below 125%.

System: L1210 leukemia ip in BDF1 mice, survival T/C
Assay: NCI In Vivo Anticancer Drug Screen. Data for tumor model L1210 Leukemia (intraperitoneal) in B6D2F1 (BDF1) mice
Settings: endpoint: mean survival time, higher = longer survival
How it was run: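 Read-out is survival time, reported as the treated-group measurement over the vehicle-control measurement.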

[1] = dose: 100.0 mg/kg/injection, schedule: Q01DX001 (ip), vehicle: saline
[2] = dose: 100.0 mg/kg/injection, schedule: Q01DX009 (ip), vehicle: saline with Tween-80
[3] = dose: 100.0 mg/kg/injection, schedule: Q04DX003 (ip), vehicle: saline
[4] = dose: 200.0 mg/kg/injection, schedule: Q01DX001 (ip), vehicle: saline
[5] = dose: 200.0 mg/kg/injection, schedule: Q01DX009 (ip), vehicle: saline with Tween-80
[6] = dose: 200.0 mg/kg/injection, schedule: Q04DX003 (ip), vehicle: saline
[7] = dose: 400.0 mg/kg/injection, schedule: Q01DX001 (ip), vehicle: saline
[8] = dose: 400.0 mg/kg/injection, schedule: Q04DX003 (ip), vehicle: saline
[9] = dose: 12.5 mg/kg/injection, schedule: Q04DX003 (ip), vehicle: saline with Tween-80

Measured: T/C

c1cc[c]([Sn]([O][Sn]([c]2ccccc2)([c]2ccccc2)[c]2ccccc2)([c]2ccccc2)[c]2ccccc2)cc1
inactive: dose: 5.0 mg/kg/injection, schedule: Q01DX001 (ip), vehicle: saline 102 % of control | dose: 10.0 mg/kg/injection, schedule: Q01DX001 (ip), vehicle: saline 100 % of control | dose: 20.0 mg/kg/injection, schedule: Q01DX001 (ip), vehicle: saline 102 % of control | dose: 40.0 mg/kg/injection, schedule: Q01DX001 (ip), vehicle: saline 93 % of control

CC1(C)OC(=O)C(=Cc2c(Cl)cccc2Cl)C(=O)O1
inactive: [1] 98 % of control | [2] 104 % of control | [3] 99 % of control | [4] 95 % of control | [5] 92 % of control | [6] 94 % of control | [7] 96 % of control | [8] 97 % of control

CC(C)N(C(=O)COc1ccc(Cl)cc1)c1ccccc1
inactive: dose: 50.0 mg/kg/injection, schedule: Q01DX009 (ip), vehicle: Klucel (hydroxypropylcellulose) (HPC) 103 % of control | dose: 100.0 mg/kg/injection, schedule: Q01DX009 (ip), vehicle: Klucel (hydroxypropylcellulose) (HPC) 104 % of control | dose: 100.0 mg/kg/injection, schedule: Q04DX003 (ip), vehicle: Klucel (hydroxypropylcellulose) (HPC) 108 % of control | dose: 200.0 mg/kg/injection, schedule: Q01DX009 (ip), vehicle: Klucel (hydroxypropylcellulose) (HPC) 92 % of control | dose: 200.0 mg/kg/injection, schedule: Q04DX003 (ip), vehicle: Klucel (hydroxypropylcellulose) (HPC) 93 % of control

O=C(O)/C=C/c1cnccn1
inactive: dose: 100.0 mg/kg/injection, schedule: Q04DX003 (ip), vehicle: carboxymethylcellulose (CMC) 103 % of control | dose: 200.0 mg/kg/injection, schedule: Q04DX003 (ip), vehicle: carboxymethylcellulose (CMC) 93 % of control | dose: 400.0 mg/kg/injection, schedule: Q04DX003 (ip), vehicle: carboxymethylcellulose (CMC) 97 % of control

COC(=O)c1ccc(N(C)CCC(=O)CBr)cc1
inactive: [1] 95 % of control

C1CCC2C(C1)CCCC2C(C1CCCC2CCCCC21)C1CCCC2CCCCC21 (configuration not stated)
inactive: dose: 100.0 mg/kg/injection, schedule: Q01DX001 (ip), vehicle: saline with Tween-80 90 % of control | dose: 200.0 mg/kg/injection, schedule: Q01DX001 (ip), vehicle: saline with Tween-80 90 % of control | dose: 400.0 mg/kg/injection, schedule: Q01DX001 (ip), vehicle: saline with Tween-80 90 % of control

N#CSCSC#N
inactive: dose: 3.12 mg/kg/injection, schedule: Q04DX003 (ip), vehicle: saline with Tween-80 98 % of control | dose: 6.25 mg/kg/injection, schedule: Q04DX003 (ip), vehicle: saline with Tween-80 96 % of control | [9] 90 % of control

CC1NC(=O)NC(=O)C1CCSCCC1C(=O)NC(=O)NC1C (configuration not stated)
inactive: [1] 96 % of control | [4] 109 % of control | [7] 104 % of control

COc1cc2c(cc1OC)C1CC3(CC4c5cc(OC)c(OC)cc5CCN4CC3CO)C(CO)CN1CC2 (configuration not stated)
inactive: dose: 4.0 mg/kg/injection, schedule: Q04DX003 (ip), vehicle: water 101 % of control | dose: 8.0 mg/kg/injection, schedule: Q04DX003 (ip), vehicle: water 101 % of control | dose: 16.0 mg/kg/injection, schedule: Q04DX003 (ip), vehicle: water 110 % of control | dose: 32.0 mg/kg/injection, schedule: Q04DX003 (ip), vehicle: water 103 % of control | dose: 64.0 mg/kg/injection, schedule: Q04DX003 (ip), vehicle: water 101 % of control

O=C(O)c1ccc(C(=O)O)nn1
inactive: dose: 100.0 mg/kg/injection, schedule: Q04DX002 (ip), vehicle: saline 96 % of control | dose: 200.0 mg/kg/injection, schedule: Q04DX002 (ip), vehicle: saline 90 % of control

CCOC(=O)C1CCCNC1 (configuration not stated)
inactive: dose: 100.0 mg/kg/injection, schedule: Q01DX009 (ip), vehicle: saline 96 % of control | [3] 98 % of control | dose: 200.0 mg/kg/injection, schedule: Q01DX009 (ip), vehicle: saline 91 % of control | [6] 101 % of control | dose: 400.0 mg/kg/injection, schedule: Q01DX009 (ip), vehicle: saline 100 % of control | [8] 94 % of control

O=C(O)c1cccc(N2C(=O)CSC2=S)c1
inactive: dose: 25.0 mg/kg/injection, schedule: Q04DX002 (ip), vehicle: Klucel (hydroxypropylcellulose) (HPC) 94 % of control | dose: 50.0 mg/kg/injection, schedule: Q04DX002 (ip), vehicle: Klucel (hydroxypropylcellulose) (HPC) 93 % of control and 91 % of control | dose: 100.0 mg/kg/injection, schedule: Q04DX002 (ip), vehicle: Klucel (hydroxypropylcellulose) (HPC) 93 % of control and 102 % of control | dose: 200.0 mg/kg/injection, schedule: Q04DX002 (ip), vehicle: Klucel (hydroxypropylcellulose) (HPC) 88 % of control

Cc1ccccc1NC(=S)NCCC(=O)O
inactive: dose: 100.0 mg/kg/injection, schedule: Q04DX002 (ip), vehicle: saline with Tween-80 105 % of control | dose: 200.0 mg/kg/injection, schedule: Q04DX002 (ip), vehicle: saline with Tween-80 97 % of control | dose: 400.0 mg/kg/injection, schedule: Q04DX002 (ip), vehicle: saline with Tween-80 97 % of control

Cc1ccc(Nc2n[nH]c(=S)s2)cc1F
inactive: dose: 75.0 mg/kg/injection, schedule: Q01DX001 (ip), vehicle: other 100 % of control | dose: 150.0 mg/kg/injection, schedule: Q01DX001 (ip), vehicle: other 100 % of control | dose: 300.0 mg/kg/injection, schedule: Q01DX001 (ip), vehicle: other 100 % of control

COc1ccc(OC)c(NC(=O)c2cccc(N)c2)c1
inactive: dose: 100.0 mg/kg/injection, schedule: Q01DX001 (ip), vehicle: carboxymethylcellulose (CMC) 111 % of control | dose: 200.0 mg/kg/injection, schedule: Q01DX001 (ip), vehicle: carboxymethylcellulose (CMC) 105 % of control | dose: 400.0 mg/kg/injection, schedule: Q01DX001 (ip), vehicle: carboxymethylcellulose (CMC) 103 % of control

N#CC(C#N)=Cc1ccnc2ccccc12
inactive: dose: 10.0 mg/kg/injection, schedule: Q01DX009 (ip), vehicle: saline with Tween-80 101 % of control | [9] 101 % of control | dose: 20.0 mg/kg/injection, schedule: Q01DX009 (ip), vehicle: saline with Tween-80 101 % of control | dose: 25.0 mg/kg/injection, schedule: Q04DX003 (ip), vehicle: saline with Tween-80 104 % of control | dose: 40.0 mg/kg/injection, schedule: Q01DX009 (ip), vehicle: saline with Tween-80 101 % of control | dose: 50.0 mg/kg/injection, schedule: Q04DX003 (ip), vehicle: saline with Tween-80 95 % of control | dose: 100.0 mg/kg/injection, schedule: Q04DX003 (ip), vehicle: saline with Tween-80 105 % of control

NC1=NC(c2ccccc2)C2=C(N1)C(=O)N(c1ccc(Br)cc1)C2 (configuration not stated)
inactive: dose: 18.75 mg/kg/injection, schedule: Q01DX009 (ip), vehicle: saline 88 % of control | dose: 37.5 mg/kg/injection, schedule: Q01DX009 (ip), vehicle: saline 86 % of control | dose: 75.0 mg/kg/injection, schedule: Q01DX001 (ip), vehicle: saline 93 % of control | dose: 75.0 mg/kg/injection, schedule: Q01DX009 (ip), vehicle: saline 91 % of control | dose: 150.0 mg/kg/injection, schedule: Q01DX001 (ip), vehicle: saline 90 % of control | dose: 300.0 mg/kg/injection, schedule: Q01DX001 (ip), vehicle: saline 95 % of control

Cc1ccc(S(=O)(=O)Nc2ccc(Nc3ccccc3)cc2)cc1
inactive: dose: 50.0 mg/kg/injection, schedule: Q01DX009 (ip), vehicle: saline with Tween-80 94 % of control | [2] 94 % of control | [5] 102 % of control
